Results taken from patent publication US8278032B2, “Transporter protein in mammal and utilization of the same” (priority 2005, dated 2012).
Like-named read-outs stand apart in the source and are kept apart here.

How the values were obtained:
hMATE1 = molecular target: T1, hMATE1 (Homo sapiens, UniProt Q96FL8); assay: Inhibition of RI-labeled TEA uptake in HEK293 cells expressing hMATE1; settings: for Inhibition of TEA uptake activity (in words, summary of Table 1): MATE1 expressing HEK293 cells, 50 μM TEA, pH 8.0
T1 sequence (Q96FL8 1-570): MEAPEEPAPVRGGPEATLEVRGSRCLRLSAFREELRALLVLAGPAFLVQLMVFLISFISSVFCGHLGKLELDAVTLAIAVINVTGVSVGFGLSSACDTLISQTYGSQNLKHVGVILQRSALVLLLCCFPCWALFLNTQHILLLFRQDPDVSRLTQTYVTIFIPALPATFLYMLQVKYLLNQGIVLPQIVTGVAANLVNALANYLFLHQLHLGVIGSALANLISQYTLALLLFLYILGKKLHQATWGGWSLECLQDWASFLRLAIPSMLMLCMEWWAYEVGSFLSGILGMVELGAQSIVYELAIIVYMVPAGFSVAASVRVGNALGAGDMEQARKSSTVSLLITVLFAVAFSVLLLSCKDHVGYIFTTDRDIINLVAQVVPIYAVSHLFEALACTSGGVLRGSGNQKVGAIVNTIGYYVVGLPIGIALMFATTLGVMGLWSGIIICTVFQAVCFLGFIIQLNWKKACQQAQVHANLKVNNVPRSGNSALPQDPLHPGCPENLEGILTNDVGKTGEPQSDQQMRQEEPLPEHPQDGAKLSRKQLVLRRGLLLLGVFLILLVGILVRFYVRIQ

mMATE1 = molecular target: T2, mMATE1 (Mus musculus, UniProt Q8K0H1); assay: Inhibition of RI-labeled TEA uptake in HEK293 cells expressing mMATE1; type: cell-based;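 note: transfected HEK293 cells held 5 min at 37 °C before tracer addition, uptake read as radioactivity retained on a 0.45-µm membrane filter, mean ± SD of three to nine experiments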
T2 construct: expressed in transfected cells; host or cells: HEK293
T2 sequence (Q8K0H1 with tags, fused parts or gaps): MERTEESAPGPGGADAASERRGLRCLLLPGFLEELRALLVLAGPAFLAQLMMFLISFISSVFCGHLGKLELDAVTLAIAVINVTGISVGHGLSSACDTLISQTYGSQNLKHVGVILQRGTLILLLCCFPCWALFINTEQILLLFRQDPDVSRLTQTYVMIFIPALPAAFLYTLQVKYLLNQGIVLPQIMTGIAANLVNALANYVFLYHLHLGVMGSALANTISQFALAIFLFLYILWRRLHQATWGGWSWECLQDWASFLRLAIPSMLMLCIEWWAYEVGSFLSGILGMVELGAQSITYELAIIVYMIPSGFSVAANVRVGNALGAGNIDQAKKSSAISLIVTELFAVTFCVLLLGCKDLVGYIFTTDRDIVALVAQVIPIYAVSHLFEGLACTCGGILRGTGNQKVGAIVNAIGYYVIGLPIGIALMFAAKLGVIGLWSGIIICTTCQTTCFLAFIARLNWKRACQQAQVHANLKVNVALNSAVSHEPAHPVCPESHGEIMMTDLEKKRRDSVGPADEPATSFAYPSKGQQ

[1] = compound 5 mM, 50 μM RI-labeled TEA, pH 8.0, HEK293 cells expressing hMATE1
[2] = compound 5 mM, 50 μM RI-labeled TEA, pH 8.0, HEK293 cells expressing mMATE1, read-out: TEA uptake activity percent taking the level with addition of no compound as 100% (% ± S.D.)
[3] = compound 0.1 mM, 50 μM RI-labeled TEA, pH 8.0, HEK293 cells expressing hMATE1
[4] = HEK293, pH 8, read-out: TEA uptake activity percent taking the level with addition of no compound as 100% (% ± S.D.)
[5] = compound 0.1 mM, 50 μM RI-labeled TEA, pH 8.0, HEK293 cells expressing mMATE1, read-out: TEA uptake activity percent taking the level with addition of no compound as 100% (% ± S.D.)
[6] = compound 10 mM, 50 μM RI-labeled TEA, pH 8.0, HEK293 cells expressing mMATE1
[7] = compound 0.01 mM, 50 μM RI-labeled TEA, pH 8.0, HEK293 cells expressing hMATE1
[8] = compound 10 mM, 50 μM RI-labeled TEA, pH 8.0, HEK293 cells expressing hMATE1

C[N+](C)(C)CCO [Choline]
TEA uptake activity percent taking the level with addition of no compound as 100% (% ± S.D.) (hMATE1; [1]): 62.7 ± 4.1% | remaining activity at 5000 µM (mMATE1; [2]): 62 ± 8.8%

CCN(CC)CCNC(=O)c1ccc(N)cc1 [Procainamide]
TEA uptake activity percent taking the level with addition of no compound as 100% (% ± S.D.) (hMATE1; [3]): 62.6 ± 0.8% | remaining activity at 100 µM (mMATE1; [4]): 65.7 ± 8.2%

CC(=O)[C@H]1CC[C@H]2[C@@H]3CCC4=CC(=O)CC[C@]4(C)[C@H]3CC[C@]12C [Progesterone]
Inhibition of TEA uptake activity (in words, summary of Table 1) (hMATE1): inhibited | TEA uptake activity percent taking the level with addition of no compound as 100% (% ± S.D.) (hMATE1; [3]): 31.7 ± 5.6% | remaining activity at 100 µM (mMATE1; [5]): 9.3 ± 1.6%

C[N+](C)(C)CC(O)CC(=O)[O-] (centres unmarked) [Carnitine]
TEA uptake activity percent taking the level with addition of no compound as 100% (% ± S.D.) (hMATE1; [1]): 104.2 ± 6.4% | remaining activity at 5000 µM (mMATE1; [2]): 71.2 ± 6.1%

O=C(O)c1ccccc1O [Salicylate]
TEA uptake activity percent taking the level with addition of no compound as 100% (% ± S.D.) (hMATE1; pH 8): 97.8 ± 4.8% | TEA uptake activity percent taking the level with addition of no compound as 100% (% ± S.D.) (mMATE1; [6]): 92.4 ± 4.3%

CCCN(CCC)S(=O)(=O)c1ccc(C(=O)O)cc1 [Probenecid]
TEA uptake activity percent taking the level with addition of no compound as 100% (% ± S.D.) (hMATE1; compound 1 mM, 50 μM RI-labeled TEA, pH 8.0, HEK293 cells expressing hMATE1): 108.5 ± 7.9% | remaining activity at 1000 µM (mMATE1; compound 1 mM, 50 μM RI-labeled TEA, pH 8.0, HEK293 cells expressing mMATE1, read-out: TEA uptake activity percent taking the level with addition of no compound as 100% (% ± S.D.)): 93.7 ± 11.9%

C=C[C@H]1C[N@@]2CC[C@H]1C[C@@H]2[C@@H](O)c1ccnc2ccc(OC)cc12 [Quinidine]
Inhibition of TEA uptake activity (in words, summary of Table 1) (hMATE1): strongly inhibited | TEA uptake activity percent taking the level with addition of no compound as 100% (% ± S.D.) (hMATE1; [7]): 35.0 ± 2.1% | TEA uptake activity percent taking the level with addition of no compound as 100% (% ± S.D.) (hMATE1; compound 0.05 mM, 50 μM RI-labeled TEA, pH 8.0, HEK293 cells expressing hMATE1): 5.1 ± 8.9% | TEA uptake activity percent taking the level with addition of no compound as 100% (% ± S.D.) (hMATE1; [3]): 0.0 ± 4.2% | remaining activity at 10 µM (mMATE1; compound 0.01 mM, 50 μM RI-labeled TEA, pH 8.0, HEK293 cells expressing mMATE1, read-out: TEA uptake activity percent taking the level with addition of no compound as 100% (% ± S.D.)): 74.7 ± 9.8% | remaining activity at 50 µM (mMATE1; compound 0.05 mM, 50 μM RI-labeled TEA, pH 8.0, HEK293 cells expressing mMATE1, read-out: TEA uptake activity percent taking the level with addition of no compound as 100% (% ± S.D.)): 50.3 ± 5.4% | remaining activity at 100 µM (mMATE1; [5]): 26.6 ± 7.3%

C[C@]12C[C@H](O)[C@H]3[C@@H](CCC4=CC(=O)CC[C@@]43C)[C@@H]1CC[C@@H]2C(=O)CO [Corticosterone]
Inhibition of TEA uptake activity (in words, summary of Table 1) (hMATE1): inhibited | TEA uptake activity percent taking the level with addition of no compound as 100% (% ± S.D.) (hMATE1; [3]): 10.0 ± 6.7% | remaining activity at 100 µM (mMATE1; [5]): 50 ± 2.5%

C[C@]12CC[C@H]3[C@@H](CCC4=CC(=O)CC[C@@]43C)[C@@H]1CC[C@@H]2O [Testosterone]
Inhibition of TEA uptake activity (in words, summary of Table 1) (hMATE1): inhibited | TEA uptake activity percent taking the level with addition of no compound as 100% (% ± S.D.) (hMATE1; compound 0.001 mM, 50 μM RI-labeled TEA, pH 8.0, HEK293 cells expressing hMATE1): 99.6 ± 4.3% | TEA uptake activity percent taking the level with addition of no compound as 100% (% ± S.D.) (hMATE1; [7]): 64.5 ± 14.7% | TEA uptake activity percent taking the level with addition of no compound as 100% (% ± S.D.) (hMATE1; [3]): 38.8 ± 3.2% | remaining activity at 1 µM (mMATE1; [4]): 67 ± 8.7% | remaining activity at 10 µM (mMATE1; [4]): 44.7 ± 3% | remaining activity at 100 µM (mMATE1; [4]): 11.5 ± 1.1%

CC(O)C(=O)O (centres unmarked) [Lactate]
TEA uptake activity percent taking the level with addition of no compound as 100% (% ± S.D.) (hMATE1; [8]): 103.8 ± 8.8% | TEA uptake activity percent taking the level with addition of no compound as 100% (% ± S.D.) (mMATE1; [6]): 93.9 ± 3.2%

Nc1ccc(C(=O)NCC(=O)O)cc1 [PAH]
TEA uptake activity percent taking the level with addition of no compound as 100% (% ± S.D.) (hMATE1; [1]): 110.3 ± 2.7% | TEA uptake activity percent taking the level with addition of no compound as 100% (% ± S.D.) (mMATE1; compound 5 mM, 50 μM RI-labeled TEA, pH 8.0, HEK293 cells expressing mMATE1): 94.7 ± 9.1%

O=c1c(O)c(-c2ccc(O)c(O)c2)oc2cc(O)cc(O)c12 [Quercetin]
Inhibition of TEA uptake activity (in words, summary of Table 1) (hMATE1): inhibited | TEA uptake activity percent taking the level with addition of no compound as 100% (% ± S.D.) (hMATE1; [3]): 28.2 ± 3.1% | remaining activity at 100 µM (mMATE1; [5]): 47.1 ± 0.1%

COc1ccc2[nH]cc(CCNC(C)=O)c2c1 [Melatonin]
Inhibition of TEA uptake activity (in words, summary of Table 1) (hMATE1): inhibited | TEA uptake activity percent taking the level with addition of no compound as 100% (% ± S.D.) (hMATE1; [3]): 85.0 ± 4.0% | remaining activity at 100 µM (mMATE1; [4]): 51.4 ± 0.8%

N=C(N)N [Guanidine]
TEA uptake activity percent taking the level with addition of no compound as 100% (% ± S.D.) (hMATE1; compound 0.5 mM, 50 μM RI-labeled TEA, pH 8.0, HEK293 cells expressing hMATE1): 93.4 ± 7.6% | remaining activity at 500 µM (mMATE1; compound 0.5 mM, 50 μM RI-labeled TEA, pH 8.0, HEK293 cells expressing mMATE1, read-out: TEA uptake activity percent taking the level with addition of no compound as 100% (% ± S.D.)): 96 ± 8.5%

O=C(O)CCC(=O)O [Succinate]
TEA uptake activity percent taking the level with addition of no compound as 100% (% ± S.D.) (hMATE1; [8]): 108.1 ± 4.2% | TEA uptake activity percent taking the level with addition of no compound as 100% (% ± S.D.) (mMATE1; [6]): 95.1 ± 6.3%
